Source: PubChem BioAssay (NCI)
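The compound was tested at five concentrations on cells cultured in 96-well plates, with a 48-hour exposure period. GI50 marks 50% less growth. TGI is the concentration that stops growth completely.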

Key:
Assay in all cases: growth of human tumour cells (NCI), 48 h
786-0 renal = system: 786-0 renal
A498 renal = system: A498 renal
A549 NSCLC = system: A549 NSCLC
ACHN renal = system: ACHN renal
BT-549 breast = system: BT-549 breast
CAKI-1 renal = system: CAKI-1 renal
CCRF-CEM leukemia = system: CCRF-CEM leukemia
COLO 205 colon = system: COLO 205 colon
DU-145 prostate = system: DU-145 prostate
EKVX NSCLC = system: EKVX NSCLC
HCC-2998 colon = system: HCC-2998 colon
HCT-116 colon = system: HCT-116 colon
HCT-15 colon = system: HCT-15 colon
HL-60(TB) leukemia = system: HL-60(TB) leukemia
HOP-62 NSCLC = system: HOP-62 NSCLC
HOP-92 NSCLC = system: HOP-92 NSCLC
HS 578T breast = system: HS 578T breast
HT29 colon = system: HT29 colon
IGROV1 ovarian = system: IGROV1 ovarian
K-562 leukemia = system: K-562 leukemia
KM12 colon = system: KM12 colon
LOX IMVI melanoma = system: LOX IMVI melanoma
M14 melanoma = system: M14 melanoma
MALME-3M melanoma = system: MALME-3M melanoma
MCF7 breast = system: MCF7 breast
MDA-MB-231 breast = system: MDA-MB-231 breast
MDA-MB-435 = system: MDA-MB-435
MDA-MB-468 breast = system: MDA-MB-468 breast
MOLT-4 leukemia = system: MOLT-4 leukemia
NCI-H226 lung = system: NCI-H226 lung

SMILES: Cc1ccc(C2CC(c3ccc(NC(=O)Nc4ccccc4)cc3)=NN2c2ccc(S(C)(=O)=O)cc2)cc1 (centres undefined)
- GI50 (786-0 renal): 2240 nM
- TGI (786-0 renal): 6.1 µM
- GI50 (A498 renal): 2730 nM
- TGI (A498 renal): 6.97 µM
- GI50 (A549 NSCLC): 3.46 µM
- TGI (A549 NSCLC): 16 µM
- GI50 (ACHN renal): 2990 nM
- TGI (ACHN renal): 9.59 µM
- GI50 (BT-549 breast): 2950 nM
- TGI (BT-549 breast): 7.93 µM
- GI50 (CAKI-1 renal): 3.34 µM
- TGI (CAKI-1 renal): 11.6 µM
- GI50 (CCRF-CEM leukemia): 2530 nM
- TGI (CCRF-CEM leukemia): 6.98 µM
- GI50 (COLO 205 colon): 1930 nM
- TGI (COLO 205 colon): 3.65 µM
- GI50 (DU-145 prostate): 4.43 µM
- TGI (DU-145 prostate): 18.2 µM
- GI50 (EKVX NSCLC): 2610 nM
- TGI (EKVX NSCLC): 11.1 µM
- GI50 (HCC-2998 colon): 2380 nM
- TGI (HCC-2998 colon): 6.27 µM
- GI50 (HCT-116 colon): 1720 nM
- TGI (HCT-116 colon): 3.56 µM
- GI50 (HCT-15 colon): 1950 nM
- TGI (HCT-15 colon): 5.4 µM
- GI50 (HL-60(TB) leukemia): 2090 nM
- TGI (HL-60(TB) leukemia): 6.11 µM
- GI50 (HOP-62 NSCLC): 6.94 µM
- TGI (HOP-62 NSCLC): 21.4 µM
- GI50 (HOP-92 NSCLC): 2350 nM
- TGI (HOP-92 NSCLC): 8.22 µM
- GI50 (HS 578T breast): 3.47 µM
- TGI (HS 578T breast): 17.2 µM
- GI50 (HT29 colon): 1910 nM
- TGI (HT29 colon): 4.97 µM
- GI50 (IGROV1 ovarian): 2910 nM
- TGI (IGROV1 ovarian): 11 µM
- GI50 (K-562 leukemia): 3.14 µM
- TGI (K-562 leukemia): 70.9 µM
- GI50 (KM12 colon): 3.15 µM
- TGI (KM12 colon): 10.7 µM
- GI50 (LOX IMVI melanoma): 1680 nM
- TGI (LOX IMVI melanoma): 3.07 µM
- GI50 (M14 melanoma): 3.28 µM
- TGI (M14 melanoma): 12.6 µM
- GI50 (MALME-3M melanoma): 2470 nM
- TGI (MALME-3M melanoma): 8.74 µM
- GI50 (MCF7 breast): 2110 nM
- TGI (MCF7 breast): 6.79 µM
- GI50 (MDA-MB-231 breast): 2110 nM
- TGI (MDA-MB-231 breast): 4.94 µM
- GI50 (MDA-MB-435): 2940 nM
- TGI (MDA-MB-435): 12.3 µM
- GI50 (MDA-MB-468 breast): 2090 nM
- TGI (MDA-MB-468 breast): 5.66 µM
- GI50 (MOLT-4 leukemia): 2420 nM
- TGI (MOLT-4 leukemia): 8.14 µM
- GI50 (NCI-H226 lung): 2410 nM
